For eleven compounds, IC50 results are on record in patent publication US11446287B2, “Compounds and methods for EP300 or CBP modulation and indications therefor” (Opna Immuno-Oncology SA, priority 2019, dated 2022).

The IC50 is the concentration that inhibits the measured activity by half.

The target of this assay is T1, Recombinant human BRD4 containing dual bromodomains (BRD4-BD12 (1-477)) (Homo sapiens, UniProt O60885).
T1 construct: Recombinant human BRD4 containing dual bromodomains (BRD4-BD12 (1-477)); made in house; host or cells: E. coli BL21-CodonPlus (DE3), modified pET vector
Nature of the assay: BRD4 Alphascreen binding assay. In short, it runs like this:
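His-tagged human BRD4 tandem bromodomains (1-477, E. coli) incubated 1 h at room temperature with biotinylated tetra-acetylated H4 (1-21) peptide and compound in HEPES pH 7.5 buffer with 2 mM DTT. AlphaScreen signal read 30 min after adding beads (7.5 μg/ml); IC50 from four-parameter fit after normalization to controls.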

As for `Cc1noc(C)c1-c1cnc2c(Cc3ccccn3)cn(-c3ccc(C(=O)O)cc3OC(F)(F)F)c2c1` [P-0159, 4-(6-(3,5-dimethylisoxazol-4-yl)-3-(pyridin-2-ylmethyl)-1H-pyrrolo[3,2-b]pyridin-1-yl)-3-(trifluoromethoxy)benzoic acid], the IC50 lay in the range of 0.0001 to 1 µM.

For `Cc1noc(C)c1-c1cnc2c(-c3cnn(C)c3)c(C(F)(F)F)n([C@@H](C)c3ccccn3)c2c1` [P-0160, (S)-3,5-dimethyl-4-(3-(1-methyl-1H-pyrazol-4-yl)-1-(1-(pyridin-2-yl)ethyl)-2-(trifluoromethyl)-1H-pyrrolo[3,2-b]pyridin-6-yl)isoxazole], the IC50 is 0.0001 to 1 µM.

`Cc1noc(C)c1-c1cnc2c(-c3cccc(CC(=O)O)c3)c(C(F)(F)F)n([C@@H](C)c3ccccn3)c2c1` [P-0161, (S)-2-(3-(6-(3,5-dimethylisoxazol-4-yl)-1-(1-(pyridin-2-yl)ethyl)-2-(trifluoromethyl)-1H-pyrrolo[3,2-b]pyridin-3-yl)phenyl)acetic acid]: the IC50 lay within 8 to 1000 µM.

With `Cc1noc(C)c1-c1cnc2c(-c3cccc(C(=O)O)c3)c(C(F)(F)F)n([C@@H](C)c3ccccn3)c2c1` [P-0162, (S)-3-(6-(3,5-dimethylisoxazol-4-yl)-1-(1-(pyridin-2-yl)ethyl)-2-(trifluoromethyl)-1H-pyrrolo[3,2-b]pyridin-3-yl)benzoic acid], the concentration for half-maximal inhibition (IC50) lay in the range of 8 to 1000 µM.

For the compound `Cc1noc(C)c1-c1cnc2c(C(O)(C3CC3)C3CC3)cn(-c3ccc(C(=O)O)cc3OC(F)(F)F)c2c1` [P-0163, 4-(3-(dicyclopropyl(hydroxy)methyl)-6-(3,5-dimethylisoxazol-4-yl)-1H-pyrrolo[3,2-b]pyridin-1-yl)-3-(trifluoromethoxy)benzoic acid], the IC50 was 8 to 1000 µM.

In the case of `Cc1noc(C)c1-c1cnc2c(-c3cc(C(=O)O)ccc3Cl)cn(C(C)(c3ccccn3)c3ccccn3)c2c1` [P-0164, 4-chloro-3-(1-(1,1-di(pyridin-2-yl)ethyl)-6-(3,5-dimethylisoxazol-4-yl)-1H-pyrrolo[3,2-b]pyridin-3-yl)benzoic acid], the IC50 fell in the range of 1 to 8 µM.

For the compound `CCOc1cc(C(=O)O)cc(OCC)c1-n1cc(C(O)(C2CC2)C2CC2)c2ncc(-c3c(C)noc3C)cc21` [P-0165, 4-(3-(dicyclopropyl(hydroxy)methyl)-6-(3,5-dimethylisoxazol-4-yl)-1H-pyrrolo[3,2-b]pyridin-1-yl)-3,5-diethoxybenzoic acid], the half-maximal inhibitory concentration (IC50) lay in the range of 8 to 1000 µM.

In the case of `Cc1noc(C)c1-c1cnc2c(-c3cc(C(=O)O)ccc3C#N)cn(C(C)(c3ccccn3)c3ccccn3)c2c1` [P-0166, 4-cyano-3-(1-(1,1-di(pyridin-2-yl)ethyl)-6-(3,5-dimethylisoxazol-4-yl)-1H-pyrrolo[3,2-b]pyridin-3-yl)benzoic acid], the 50% inhibitory concentration (IC50) lay within 0.0001 to 1 µM.

`C#Cc1ccccc1-c1cn(C(C)(c2ccccn2)c2ccccn2)c2cc(-c3c(C)noc3C)cnc12` [P-0167, 4-(1-(1,1-di(pyridin-2-yl)ethyl)-3-(2-ethynylphenyl)-1H-pyrrolo[3,2-b]pyridin-6-yl)-3,5-dimethylisoxazole]: the IC50 lay within 0.0001 to 1 µM.

In the case of `CCOc1cc(C(=O)O)cc(OCC)c1-n1cc(-c2ccccc2)c2ncc(-c3c(C)noc3C)cc21` [P-0168, 4-(6-(3,5-dimethylisoxazol-4-yl)-3-phenyl-1H-pyrrolo[3,2-b]pyridin-1-yl)-3,5-diethoxybenzoic acid], the IC50 fell in the range of 1 to 8 µM.

With `Cc1noc(C)c1-c1cnc2c(-c3ccccc3C#N)cn(C(C)(c3ccccn3)c3ccccn3)c2c1` [P-0169, 2-(1-(1,1-di(pyridin-2-yl)ethyl)-6-(3,5-dimethylisoxazol-4-yl)-1H-pyrrolo[3,2-b]pyridin-3-yl)benzonitrile], the IC50 was in the range of 0.0001 to 1 µM.
